In patent US12091426B2, “Bifunctional degraders of hematopoietic progenitor kinase and therapeutic uses thereof” (Nurix Therapeutics, Inc., priority 2021, dated 2024) one finds DC50 and Dmax data, which are given here for six molecules.

The assay has as its target T1, HPK1 (Homo sapiens, UniProt Q92918).
T1 construct: A HiBiT tag was introduced by CRISPR on the N terminus of HPK1 in Jurkat cells; host or cells: Jurkat cells (ATCC TIB-152), monoclonal line with CRISPR knock-in of HiBiT at the endogenous HPK1 locus
In words: HPK1 Cellular HiBit Degradation Assay. Type of assay: cell-based. The following applies: HiBiT HPK1 Jurkat cells, 24 hrs; for DC50: concentration at which 50% of HPK1 was remaining, read-out: DC50 Category; for Dmax: Jurkat, maximum degradation vs DMSO vehicle control, read-out: Dmax Category. A digest of the protocol: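 HPK1 levels are read by HiBiT luminescence after 24 h exposure of HiBiT-knock-in Jurkat cells to compound at 10 uM–0.1 nM final (11 points). Relative to DMSO (100%), DC50 is the concentration leaving 50% HPK1 from a variable-slope fit, and Dmax is 100 minus minimum remaining. Viability checked in-plate.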
For orientation: The HiBiT peptide binds its large partner to form an active luciferase.

A value given as a limit tells only on which side of the number the result lay.

T1 sequence (Q92918 whole entry): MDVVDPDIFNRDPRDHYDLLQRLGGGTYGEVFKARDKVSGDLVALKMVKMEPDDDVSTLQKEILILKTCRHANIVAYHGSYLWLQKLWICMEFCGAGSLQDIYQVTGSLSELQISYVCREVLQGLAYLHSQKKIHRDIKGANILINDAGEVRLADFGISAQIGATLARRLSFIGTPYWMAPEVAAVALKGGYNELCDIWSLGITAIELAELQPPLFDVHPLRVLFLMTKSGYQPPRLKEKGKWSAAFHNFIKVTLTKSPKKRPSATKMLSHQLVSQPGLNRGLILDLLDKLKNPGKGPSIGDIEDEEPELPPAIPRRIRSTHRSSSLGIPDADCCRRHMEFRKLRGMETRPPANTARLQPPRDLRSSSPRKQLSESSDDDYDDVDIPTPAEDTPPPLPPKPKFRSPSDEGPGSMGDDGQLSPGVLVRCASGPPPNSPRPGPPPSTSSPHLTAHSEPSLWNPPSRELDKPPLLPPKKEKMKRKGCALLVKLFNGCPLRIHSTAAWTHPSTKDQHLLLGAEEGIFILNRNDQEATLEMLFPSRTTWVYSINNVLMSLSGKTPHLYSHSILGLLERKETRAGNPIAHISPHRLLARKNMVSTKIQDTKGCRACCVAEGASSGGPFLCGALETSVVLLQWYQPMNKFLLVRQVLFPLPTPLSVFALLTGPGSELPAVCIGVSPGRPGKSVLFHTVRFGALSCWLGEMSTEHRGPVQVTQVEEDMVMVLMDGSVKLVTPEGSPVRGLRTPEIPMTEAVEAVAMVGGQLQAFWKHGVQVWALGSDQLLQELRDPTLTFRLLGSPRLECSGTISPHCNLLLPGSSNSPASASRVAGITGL

In general, DC50 refers to the concentration at which degradation of the target reaches its halfway point. For orientation: Dmax means the greatest extent of degradation seen. With `CC(C)n1cnc2cc(-c3ccc4c(c3)N([C@H]3C[C@@H](N5CCCCC5)C3)C(=O)C43CCN(C(=O)C4(C)CCN(C(=O)C5CCN(c6ccc(N7CCC(=O)NC7=O)cn6)CC5)CC4)CC3)nc(Nc3ccncc3F)c21` [Example 117, 1-[6-(4-{4-[(6-{4-[(3-fluoropyridin-4-yl)amino]-3-(propan-2-yl)-3H-imidazo[4,5-c]pyridin-6-yl}-2-oxo-1-[(1S,3S)-3-(piperidin-1-yl)cyclobutyl]-1,2-dihydrospiro[indole-3,4′-piperidin]-1′-yl)carbonyl]-4-methylpiperidine-1-carbonyl}piperidin-1-yl)pyridin-3-yl]-1,3-diazinane-2,4-dione], the half-maximal degradation concentration (DC50) was less than 0.1 µM and the Dmax is greater than 85%.
Consider `CC(C)n1cnc2cc(-c3ccc4c(c3)N([C@H]3C[C@@H](N5CCCCC5)C3)C(=O)C43CCN(C(=O)C4(C)CCN(C(=O)C5CCN(c6ccc7c(c6)C(=O)N(C6CCC(=O)NC6=O)C7=O)CC5)CC4)CC3)nc(NC3CC3)c21` (stereo partly drawn) [Example 121, 5-{4-[4-({6-[4-(cyclopropylamino)-3-(propan-2-yl)-3H-imidazo[4,5-c]pyridin-6-yl]-2-oxo-1-[(1s,3s)-3-(piperidin-1-yl)cyclobutyl]-1,2-dihydrospiro[indole-3,4′-piperidin]-1′-yl}carbonyl)-4-methylpiperidine-1-carbonyl]piperidin-1-yl}-2-(2,6-dioxopiperidin-3-yl)-2,3-dihydro-1H-isoindole-1,3-dione], for which the DC50 lay within 0.5 to 1 µM and the Dmax is 50 to 70%.
On to `CC(C)n1cnc2cc(-c3ccc4c(c3)N([C@H]3C[C@@H](N5CCCCC5)C3)C(=O)C43CCN(C(=O)C4(C)CCN(C(=O)C5CCN(c6ccc7c(c6)C(=O)N(C6CCC(=O)NC6=O)C7=O)CC5)CC4)CC3)nc(Nc3ccccc3F)c21` (stereo partly drawn) [Example 122, 2-(2,6-dioxopiperidin-3-yl)-5-(4-{4-[(6-{4-[(2-fluorophenyl)amino]-3-(propan-2-yl)-3H-imidazo[4,5-c]pyridin-6-yl}-2-oxo-1-[(1S,3S)-3-(piperidin-1-yl)cyclobutyl]-1,2-dihydrospiro[indole-3,4′-piperidin]-1′-yl)carbonyl]-4-methylpiperidine-1-carbonyl}piperidin-1-yl)-2,3-dihydro-1H-isoindole-1,3-dione], for which the DC50 is 0.1 to 0.5 µM and the Dmax lay within 70 to 85%.
The matching figures for `CC(C)n1cnc2cc(-c3ccc4c(c3)N([C@H]3C[C@@H](N5CCCCC5)C3)C(=O)C43CCN(C(=O)C4(C)CCN(C(=O)C5CCN(c6ccc(N7CCC(=O)NC7=O)cn6)CC5(F)F)CC4)CC3)nc(NC3CC3)c21` (stereo partly drawn) [Example 153, 1-(6-{4-[4-({6-[4-(cyclopropylamino)-3-isopropylimidazo[4,5-c]pyridin-6-yl]-2-oxo-1-[(1S,3S)-3-(piperidin-1-yl)cyclobutyl]spiro[indole-3,4′-piperidin]-1′-yl}carbonyl)-4-methylpiperidine-1-carbonyl]-3,3-difluoropiperidin-1-yl}pyridin-3-yl)-1,3-diazinane-2,4-dione]: less than 0.1 µM and 70 to 85%.
The corresponding values for `CC(C)n1cnc2cc(-c3ccc4c(c3)N([C@H]3C[C@@H](N5CCCCC5)C3)C(=O)C43CCN(C(=O)C4(C)CCN(C(=O)C[C@H]5CCN(c6ccc(C7CCC(=O)NC7=O)cn6)C5)CC4)CC3)nc(NC3CC3)c21` (stereo partly drawn) [Example 154, 3-{6-[(3R)-3-{2-[4-({6-[4-(cyclopropylamino)-3-isopropylimidazo[4,5-c]pyridin-6-yl]-2-oxo-1-[(1S,3S)-3-(piperidin-1-yl)cyclobutyl]spiro[indole-3,4′-piperidin]-1′-yl}carbonyl)-4-methylpiperidin-1-yl]-2-oxoethyl}pyrrolidin-1-yl]pyridin-3-yl}piperidine-2,6-dione] are 0.1 to 0.5 µM and 50 to 70%.
The matching figures for `CC(C)n1cnc2cc(-c3ccc4c(c3)N([C@H]3C[C@@H](N5CCCCC5)C3)C(=O)C43CCN(C(=O)C4(C)CCN(C(=O)C5C6CCC5CN(c5ccc(N7CCC(=O)NC7=O)cn5)C6)CC4)CC3)nc(NC3CC3)c21` (stereo partly drawn) [Example 155]: less than 0.1 µM and 70 to 85%.
